Experimental data as given in patent US20050208029A1, “Method of forming pancreatic beta cells from mesenchymal cells” (priority 2002, published 2005).

System: KUSA/A1 cells
Experiment: Insulin concentration (ELISA) in supernatant of KUSA/A1 cells cultured 12 days with or without bFGF
Type: cell-based, mouse
Conditions: 2 h after 25.0 mM glucose
Procedure: The KUSA/A1 cells obtained in Example 1 were treated with trypsin and transferred to a 6-well dish (product of Falcon) so that the cell density might become as low as possible.
The cells were cultured in serum-free DMEM containing insulin, transferrin, progesterone, putrescine and selenium or in DMEM containing 10% FBS at 33° C. for 12 days using an incubator with a CO2 concentration of 5%.
bFGF (recombinant human basic fibroblast growth factor; product of R&D) was added to each of the serum-free or serum-containing wells to a final concentration of 10 ng/ml. Hereafter, unless otherwise specified, cell culture was carried out under the same conditions while medium exchange was conducted at 2-day intervals.
After 12 days of cultivation, the medium in each well was discarded, the cells in each well were washed repeatedly with three portions of PBS. After washing, 2 ml of PBS was added to each well afresh, and cultivation was performed at 33° C. for 2 hours using an incubator with a CO2 concentration of 5%.
After 2 hours of cultivation, the PBS was discarded, 2 ml of DMEM containing 25.0 mM glucose was added afresh, and cultivation was performed at 33° C. for further 2 hours using an incubator with a CO2 concentration of 5%. […]

Substance: bFGF: recombinant human basic fibroblast growth factor; product of R&D; used as pancreatic β cell forming agent
- insulin detected in the supernatant (DMEM containing bFGF (10 ng/ml) and 10% FBS, below assay sensitivity limit): below 39 pg/mL
- insulin detected in the supernatant (serum-free DMEM containing bFGF (10 ng/ml), insulin, transferrin, progesterone, putrescine and selenium): 223 pg/mL
